Tested on: differentiated THP-1 cells
Experiment: THP-1 phagocytosis assay (pHrodo E. coli BioParticles), wild-type cells
Type: cell-based, human
Details: 30 min pre-treatment, in words
Source text: Having shown that P22 binds specifically to the sialic acid-binding site of this domain we now have a chemical tool to answer the question of whether the sialic acid-binding site is the appropriate target for small molecule ligands that might promote Aβ uptake. Siglecs preferentially recognize multivalent presentation of their ligands ([Rillahan et al., 2014], [Büll et al., 2016]), and for this reason we conjugated the biotinylated form of P22 to microparticles labeled with both FITC and streptavidin (P22 microparticles) (see Transparent Methods). More than 60% CD33-transfected BV2 cells were positive for P22 microparticles compared with only 30% cells that were only incubated with control particles (unconjugated to P22) (Figure 4A). […]
Figure 4 Effect of P22 on Phagocytosis The cells were treated with P22 conjugated to microparticles labeled with both streptavidin and fluorescein isothiocyanate (FITC), or with microparticles without P22 conjugated as control. […] (C) Quantification of phagocytic differentiated human THP-1 cells after incubation with P22 monomer, P22 conjugated microparticles, or microparticles without P22 conjugation. […]
THP-1 cells (control and CD33KO) were differentiated in growth media (RPMI 1640, 10% FCS) supplemented with 100 ng/mL PMA for 3 days. […] Differentiated cells were then lifted, counted and 75,000 cells/well were plated in a 96 well plate. […]

Cc1cc(C(=O)NC[C@@H](O)[C@@H](O)[C@@H]2O[C@@](OC[C@H]3O[C@@H](O[C@H]4[C@H](O)[C@@H](O)[C@H](OCCN)O[C@@H]4CO)[C@H](O)[C@@H](O)[C@H]3O)(C(=O)O)C[C@H](O)[C@H]2NC(=O)Cn2cc(C3CCCCC3)nn2)cc(C)c1O [P22, β-D-Glucopyranoside, 2-aminoethyl O-[N-[2-(4-cyclohexyl-1H-1,2,3-triazol-1-yl)acetyl]-9-deoxy-9-[(4-hydroxy-3,5-dimethylbenzoyl)amino]-α-neuraminosyl] (2→6)-O-β-D-galactopyranosyl-(1→4)-]
effect on phagocytosis of E. coli BioParticles: no effect

— paper PMC6669322, “Small Molecule Binding to Alzheimer Risk Factor CD33 Promotes Aβ Phagocytosis” (iScience, 2019)
